The test has as its target EGFR (human) (UniProt P00533). The settings on record: a431.

Converted amounts (≈) assume the structure as drawn.

Chain of EGFR (human) (P00533 whole entry, looked up): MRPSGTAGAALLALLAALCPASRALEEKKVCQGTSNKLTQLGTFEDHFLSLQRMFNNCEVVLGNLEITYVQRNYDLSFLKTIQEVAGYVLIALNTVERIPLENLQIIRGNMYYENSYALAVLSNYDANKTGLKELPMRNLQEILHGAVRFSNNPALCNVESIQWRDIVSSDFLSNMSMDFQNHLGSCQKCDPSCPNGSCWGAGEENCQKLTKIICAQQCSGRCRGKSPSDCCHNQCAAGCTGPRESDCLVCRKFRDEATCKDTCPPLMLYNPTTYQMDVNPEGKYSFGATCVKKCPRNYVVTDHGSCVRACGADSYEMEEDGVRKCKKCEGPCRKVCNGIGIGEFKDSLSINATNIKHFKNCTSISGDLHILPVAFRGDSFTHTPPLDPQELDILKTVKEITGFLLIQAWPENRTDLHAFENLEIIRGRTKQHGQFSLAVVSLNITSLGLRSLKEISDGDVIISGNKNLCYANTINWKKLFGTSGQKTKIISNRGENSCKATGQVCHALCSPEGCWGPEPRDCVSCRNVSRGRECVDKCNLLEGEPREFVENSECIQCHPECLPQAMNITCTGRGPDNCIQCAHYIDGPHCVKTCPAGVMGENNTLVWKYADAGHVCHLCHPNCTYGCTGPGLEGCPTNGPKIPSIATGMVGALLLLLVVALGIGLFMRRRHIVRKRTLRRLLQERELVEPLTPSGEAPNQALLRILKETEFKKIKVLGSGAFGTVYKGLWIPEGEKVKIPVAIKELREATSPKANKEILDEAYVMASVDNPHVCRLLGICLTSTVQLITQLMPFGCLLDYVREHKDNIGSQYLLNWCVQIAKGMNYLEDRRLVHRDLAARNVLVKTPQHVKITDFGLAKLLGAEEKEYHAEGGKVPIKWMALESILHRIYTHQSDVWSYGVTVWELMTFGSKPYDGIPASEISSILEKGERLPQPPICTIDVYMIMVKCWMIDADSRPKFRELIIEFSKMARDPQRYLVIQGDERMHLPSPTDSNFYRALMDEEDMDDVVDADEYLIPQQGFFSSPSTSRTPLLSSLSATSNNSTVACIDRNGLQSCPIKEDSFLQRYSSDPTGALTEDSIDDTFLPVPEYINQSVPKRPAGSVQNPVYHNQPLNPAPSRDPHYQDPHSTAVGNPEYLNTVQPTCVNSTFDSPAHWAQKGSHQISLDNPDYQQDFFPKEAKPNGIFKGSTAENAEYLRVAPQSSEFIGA

For the compound `COc1cc2ncc(C#N)c(Nc3ccc(Sc4nc5ccccc5c(=O)[nH]4)c(Cl)c3)c2cc1[N+](=O)[O-]`, the IC50 – broadly, the concentration needed to halve the response being measured – is 2.28 µg/mL (≈ 4.29 µM).

With `COc1cc2ncc(C#N)c(Nc3ccc(Sc4nccn4C)c(Cl)c3)c2cc1NC(=O)/C=C/CN(C)C`, the IC50 came to 0.02 µg/mL (≈ 0.0365 µM). With `CCOc1cc2ncc(C#N)c(Nc3ccc(Nc4nnc(C(F)(F)F)s4)c(Cl)c3)c2cc1[N+](=O)[O-]` the figure was 1.79 µg/mL (≈ 3.34 µM); with `COc1cc2ncc(C#N)c(Nc3ccc(N(Cc4cccnc4)C(C)=O)c(Cl)c3)c2cc1NC(C)=O`, 3.68 µg/mL (≈ 7.15 µM). In the case of `COc1cc2c(Nc3ccc4cn[nH]c4c3)c(C#N)cnc2cc1OCCCN1CCOCC1` it was over 5 µg/mL; in that of `COc1cc2ncc(C#N)c(Nc3ccc(-n4ccnc4)c(Cl)c3)c2cc1N`, 1.63 µg/mL (≈ 4.17 µM). With `COc1cc2ncc(C#N)c(Nc3ccc(N(Cc4cccnc4)C(C)=O)c(Cl)c3)c2cc1[N+](=O)[O-]` the figure was 1.6 µg/mL (≈ 3.18 µM); with `COc1cc2ncc(C#N)c(Nc3ccc(N(Cc4cccnc4)C(C)=O)c(Cl)c3)c2cc1N`, over 5 µg/mL.

Compound `CCOc1cc2ncc(C#N)c(Nc3ccc(Sc4nc(-c5ccccc5)cs4)c(C(F)(F)F)c3)c2cc1NC(=O)/C=C/CN(C)C` gave an IC50 of 0.3 µg/mL (≈ 0.445 µM).

`CCOc1cc2ncc(C#N)c(Nc3ccc(Nc4nnc(C(F)(F)F)s4)c(Cl)c3)c2cc1NC(=O)/C=C/CN(C)C`: the IC50 was found to be 0.728 µg/mL (≈ 1.18 µM).

(Values after the Kinase Knowledgebase extract (Sharma et al. 2016).)
